We go through five compounds from PMC11183015, “In vivo stable ^211At-labeled prostate-specific membrane antigen-targeted tracer using a neopentyl glycol structure” (EJNMMI Radiopharmacy and Chemistry, 2024).

Data set [1] addresses PSMA (Homo sapiens, UniProt Q04609). Description: Competitive inhibition of [125I]DCIT binding to LNCaP cells. The following applies: competitor [125I]DCIT, 37 °C, 1 h. More on the design: endogenous in cells; host or cells: LNCaP (human prostate cancer cell line, RIKEN BRC). The protocol:
The human prostate cancer cell line LNCaP was provided by RIKEN BioResource Center (BRC) through the National BioResource Project of MEXT/AMED, Japan. LNCaP cells were cultured according to protocols prescribed by RIKEN BRC. LNCaP cells were seeded in 24-well plates (~ 1.5 × 10^5 cells/500 µL/well) coated with 0.01% poly-L-lysine (Sigma-Aldrich, Tokyo). After washing twice with assay medium (RPMI 1640 supplemented with 0.5% BSA), 250 µL of assay medium was added to each well. Each PSMA derivative and [^125I]DCIT dissolved in assay medium (250 µL) were added to the well, and the plates were then incubated at 37 °C for 1 h. After removing the assay medium, the cells were washed twice with assay medium (250 µL × 2). All cells were lysed with 1 M NaOH (500 µL), and the solution was collected. The cells were washed twice with PBS (250 µL × 2), and the solution was mixed with the previous solution. The radioactivity in the solution was measured using an auto-well gamma counter. The IC50 value was calculated by fitting with nonlinear regression using GraphPad Prism 8.4.3 (GraphPad Software, Inc., San Diego).

The nature of data set [2]: Biodistribution of radioactivity in normal mice. In kind it is in vivo, mouse. To be noted: normal ddY mice, i.v. The protocol:
Six-week-old male ddY mice were injected via the tail vein with each radiolabeled PSMA derivative. Animals were sacrificed and the organs were dissected at 10 min, 1 h, 3 h, and 6 h after injection. Metabolic cages were used for housing normal mice. The tissues of interest were excised and weighed, and the radioactivity counts in each tissue were determined using an auto-well gamma counter. Each value was expressed as the mean percent injected dose/g tissue ± SD for a group of 3–5 animals, except those for the stomach, intestine, and thyroid.

In data set [3] the test system is LNCaP cell xenografts. Nature of the data set: Biodistribution of radioactivity in tumor-bearing mice. To be noted: LNCaP tumor-bearing BALB/c-nu/nu mice. The class given is in vivo, mouse. The protocol:
Animal studies were conducted in accordance with the institutional guidelines approved by the Chiba University Animal Care Committee (Permit No. 4–183). Five-week-old male ddY mice and BALB/c-nu/nu mice were purchased from Japan SLC Inc. (Hamamatsu, Japan). LNCaP cells (5.0 × 10^6 cells) were suspended in 100 μL of PBS and Matrigel (BD Biosciences, Franklin Lakes, NJ, USA) in a 1:1 ratio. Tumor xenograft models were prepared via subcutaneous injection of this LNCaP cell suspension into BALB/c nude mice.
Biodistribution studies were conducted using male BALB/c-nu/nu mice bearing LNCaP cell xenografts at 1 and 3 h postinjection of [^211At]At-NpG-D-PSMA (100 µL, 37 kBq) and 1 and 6 h postinjection of ^125I-labeled PSMA derivative (100 µL, 11.1 kBq). In the blocking study, [^125I]I-NpG-D-PSMA was coinjected with 2-PMPA (50 mg/kg weight) into tumor-bearing mice via the tail vein. At 1 h postinjection, the mice were sacrificed. The tissues of interest were excised and weighed, and the radioactivity counts in each tissue were determined using an auto-well gamma counter. Each value was expressed as the mean percent injected dose/g tissue ± SD for a group of 3–5 animals, except those for the stomach, intestine, and thyroid.

PSMA, sequence (Q04609 whole entry): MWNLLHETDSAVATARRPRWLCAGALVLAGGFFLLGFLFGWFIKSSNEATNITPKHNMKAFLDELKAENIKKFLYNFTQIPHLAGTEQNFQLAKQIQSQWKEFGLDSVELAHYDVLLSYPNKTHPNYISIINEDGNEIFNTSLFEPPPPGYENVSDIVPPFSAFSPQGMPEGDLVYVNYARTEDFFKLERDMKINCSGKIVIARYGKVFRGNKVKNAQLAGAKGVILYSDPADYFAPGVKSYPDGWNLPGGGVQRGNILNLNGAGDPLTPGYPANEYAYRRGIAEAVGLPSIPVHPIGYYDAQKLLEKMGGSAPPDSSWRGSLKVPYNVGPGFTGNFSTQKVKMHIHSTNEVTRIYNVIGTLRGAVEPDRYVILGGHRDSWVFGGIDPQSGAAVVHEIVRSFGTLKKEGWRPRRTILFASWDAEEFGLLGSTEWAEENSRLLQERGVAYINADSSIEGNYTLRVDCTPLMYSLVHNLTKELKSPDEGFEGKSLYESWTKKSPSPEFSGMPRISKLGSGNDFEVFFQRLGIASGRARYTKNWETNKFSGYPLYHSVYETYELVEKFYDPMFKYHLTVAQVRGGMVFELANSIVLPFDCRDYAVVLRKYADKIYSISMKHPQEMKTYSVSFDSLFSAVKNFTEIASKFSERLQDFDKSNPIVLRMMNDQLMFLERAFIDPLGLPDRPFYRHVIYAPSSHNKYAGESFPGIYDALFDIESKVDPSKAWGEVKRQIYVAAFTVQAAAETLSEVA

Take `O=C([O-])CN1CCN(CC(=O)[O-])CCN(CC(=O)NC[C@H]2CC[C@H](C(=O)N[C@@H](Cc3ccc4ccccc4c3)C(=O)NCCCC[C@H](NC(=O)N[C@@H](CCC(=O)O)C(=O)O)C(=O)O)CC2)CCN(CC(=O)[O-])CC1.[Ga+3]` [Ga-PSMA-617, reference compound]: in data set [1], the IC50 was 7.56 nM.
On to `O=C(O)CCC(NC(=O)NC(CCCCNC(=O)C(Cc1ccc2ccccc2c1)NC(=O)C(CCC(=O)O)NC(=O)C(CCC(=O)O)NC(=O)COCC(CO)(CO)CI)C(=O)O)C(=O)O` [I-NpG-D-PSMA], for which, in data set [1], the IC50 was 6.06 nM.
On to `O=C(O)CCC(NC(=O)NC(CCCCNC(=O)C(Cc1ccc2ccccc2c1)NC(=O)C(CCC(=O)O)NC(=O)C(CCC(=O)O)NC(=O)COCC(CO)(CO)CI)C(=O)O)C(=O)O` [I-NpG-L-PSMA], for which the IC50 in data set [1] came out at 4.04 nM.
Regarding `O=C([O-])CN1CCN(CC(=O)[O-])CCN(CC(=O)NC[C@H]2CC[C@H](C(=O)N[C@@H](Cc3ccc4ccccc4c3)C(=O)NCCCC[C@H](NC(=O)N[C@@H](CCC(=O)O)C(=O)O)C(=O)O)CC2)CCN(CC(=O)[O-])CC1.[67Ga+3]` [[^67Ga]Ga-PSMA-617, reference compound], in data set [2] (10 min), the “Radioactivity in Blood” value turned out to be 3.84 ± 0.55 %ID/g, the “Radioactivity in Bone” value was 1.54 ± 0.19 %ID/g, the “Radioactivity in Heart” value is on record as 1.51 ± 0.13 %ID/g and the “Radioactivity in Intestine” value was determined as 1.58 ± 0.17 %ID. Moreover, in data set [2] (10 min), the “Radioactivity in Kidney” value is 82.9 ± 12.2 %ID/g, the “Radioactivity in Liver” value was 0.98 ± 0.13 %ID/g, the “Radioactivity in Lung” value was 3.52 ± 0.29 %ID/g and the “Radioactivity in Muscle” value was determined as 1.34 ± 0.18 %ID/g. Further, in data set [2] (10 min), the “Radioactivity in Neck” value was determined as 0.03 ± 0.01 %ID, the “Radioactivity in Pancreas” value stood at 1.20 ± 0.22 %ID/g, the “Radioactivity in Spleen” value was 1.76 ± 0.68 %ID/g and the “Radioactivity in Stomach” value is recorded as 0.32 ± 0.03 %ID. Besides, in data set [2] (1 h), the “Radioactivity in Blood” value is given as 0.26 ±0.15 %ID/g, the “Radioactivity in Bone” value is 0.20 ± 0.09 %ID/g, the “Radioactivity in Intestine” value was found to be 0.83 ± 0.25 %ID and the “Radioactivity in Kidney” value is listed as 11.1 ± 3.22 %ID/g. Also, in data set [2] (1 h), the “Radioactivity in Liver” value came to 0.15 ± 0.03 %ID/g, the “Radioactivity in Lung” value is listed as 0.26 ± 0.12 %ID/g, the “Radioactivity in Muscle” value turned out to be 0.15 ± 0.07 %ID/g and the “Radioactivity in Neck” value stood at 0.01 ± 0.01 %ID. Also, in data set [2] (1 h), the “Radioactivity in Pancreas” value amounted to 0.11 ± 0.04 %ID/g, the “Radioactivity in Spleen” value is listed as 0.12 ± 0.08 %ID/g and the “Radioactivity in Stomach” value worked out at 0.57 ± 0.31 %ID. In addition, in data set [2] (3 h), the “Radioactivity in Heart” value was found to be 0.02 ± 0.03 %ID/g, the “Radioactivity in Intestine” value was 0.21 ± 0.09 %ID, the “Radioactivity in Kidney” value was 1.12 ± 0.34 %ID/g and the “Radioactivity in Liver” value came out at 0.06 ± 0.00 %ID/g. Besides, in data set [2] (3 h), the “Radioactivity in Lung” value was 0.03 ± 0.02 %ID/g, the “Radioactivity in Muscle” value amounted to 0.02 ± 0.02 %ID/g, the “Radioactivity in Neck” value was determined as 0.00 ± 0.00 %ID and the “Radioactivity in Stomach” value came out at 0.03 ± 0.02 %ID. In data set [2] (6 h), the “Radioactivity in Intestine” value stood at 0.34 ± 0.17 %ID, the “Radioactivity in Kidney” value was 1.06 ± 0.42 %ID/g, the “Radioactivity in Liver” value is given as 0.05 ±0.01 %ID/g and the “Radioactivity in Lung” value was determined as 0.02 ± 0.02 %ID/g. Further, in data set [2] (6 h), the “Radioactivity in Muscle” value amounted to 0.02 ± 0.02 %ID/g, the “Radioactivity in Neck” value is reported as 0.00 ± 0.00 %ID and the “Radioactivity in Stomach” value is reported as 0.05 ± 0.03 %ID. For the same compound, in data set [2] (6 h, metabolic cages), the “Radioactivity in Feces” value was found to be 0.19 ± 0.12 %ID and the “Radioactivity in Urine” value is 66.7 ± 15.8 %ID.
Regarding `O=C(O)CCC(NC(=O)NC(CCCCNC(=O)C(Cc1ccc2ccccc2c1)NC(=O)C(CCC(=O)O)NC(=O)C(CCC(=O)O)NC(=O)COCC(CO)(CO)C[211At])C(=O)O)C(=O)O` [[^211At]At-NpG-D-PSMA], in data set [3] (1 h), the “Radioactivity in Blood” value came to 0.41 ± 0.10 %ID/g, the “Radioactivity in Bone” value stood at 0.40 ± 0.22 %ID/g, the “Radioactivity in Heart” value turned out to be 0.65 ± 0.22 %ID/g and the “Radioactivity in Intestine” value stood at 1.94 ± 0.22 %ID. Further, in data set [3] (1 h), the “Radioactivity in Kidney” value is recorded as 181 ± 13.5 %ID/g, the “Radioactivity in Liver” value came out at 0.38 ± 0.08 %ID/g, the “Radioactivity in Lung” value was 1.84 ± 0.22 %ID/g and the “Radioactivity in Muscle” value worked out at 0.30 ± 0.12 %ID/g. For the same compound, in data set [3] (1 h), the “Radioactivity in Neck” value stood at 0.04 ± 0.03 %ID, the “Radioactivity in Pancreas” value was determined as 0.95 ± 0.48 %ID/g, the “Radioactivity in Spleen” value was determined as 11.8 ± 1.26 %ID/g and the “Radioactivity in Stomach” value worked out at 0.37 ± 0.15 %ID. In data set [3] (1 h), the “Radioactivity in Tumor” value amounted to 13.4 ± 3.17 %ID/g. In data set [3] (3 h), the “Radioactivity in Blood” value amounted to 0.09 ± 0.02 %ID/g, the “Radioactivity in Bone” value turned out to be 0.29 ± 0.18 %ID/g, the “Radioactivity in Heart” value amounted to 0.23 ± 0.08 %ID/g and the “Radioactivity in Intestine” value is recorded as 1.74 ± 0.39 %ID. Further, in data set [3] (3 h), the “Radioactivity in Kidney” value was determined as 132 ± 37.8 %ID/g, the “Radioactivity in Liver” value is listed as 0.11 ± 0.04 %ID/g, the “Radioactivity in Lung” value is listed as 0.55 ± 0.06 %ID/g and the “Radioactivity in Muscle” value amounted to 0.13 ± 0.09 %ID/g. In data set [3] (3 h), the “Radioactivity in Neck” value is listed as 0.05 ± 0.04 %ID, the “Radioactivity in Pancreas” value is on record as 0.27 ± 0.05 %ID/g, the “Radioactivity in Spleen” value was 4.67 ± 3.27 %ID/g and the “Radioactivity in Stomach” value is on record as 0.55 ± 0.33 %ID. The “Radioactivity in Tumor” value in data set [3] (3 h) is 16.9 ± 8.45 %ID/g.

In general, IC50 refers to the concentration that gives 50% inhibition.
